SMILES strings stand for the structures.

The nature of assay [1]: Inhibition of Leishmania mexicana GAPDH(glyceraldehyde-3-phosphate dehydrogenase).
Assay [2] in a line: Compound was tested for the inhibition of Leishmania mexicana GAPDH(glyceraldehyde-3-phosphate dehydrogenase).

Take `Nc1ncnc2c1nc(-c1cccs1)n2[C@@H]1O[C@H](CO)[C@@H](O)[C@H]1O`: the Ki (usually a dissociation constant, usually derived from enzyme kinetics or from competition with a known ligand) in assay [1] turned out to be 300 µM.
`CC(C)=CCNc1ncnc2c1nc(-c1cccs1)n2C1O[C@H](CO)[C@@H](O)[C@H]1O` (some centres undefined): the inhibitory constant (Ki) is 18 µM in assay [2] and 9 µM in assay [1].
In assay [1], `CC(C)Nc1nc2c(N)ncnc2n1C1O[C@H](CO)[C@@H](O)[C@H]1O` (some centres undefined) displayed a Ki of 1500 µM.
As to `NC(=O)c1ccccc1C(=O)NC[C@H]1OC(n2cnc3c(NCc4ccccc4)ncnc32)[C@H](O)[C@@H]1O` (some centres undefined), in assay [1], the Ki worked out at 800 µM.
With `Nc1ncnc2c1ncn2C1O[C@H](CNC(=O)c2ccccc2)[C@@H](O)[C@H]1O` (some centres undefined), the affinity in assay [1] corresponds to a Ki of 3300 µM.
The same measure, in the same setting: the value for `O=C1c2ccccc2C(=O)N1C[C@H]1OC(n2cnc3c(NCc4ccccc4)ncnc32)[C@H](O)[C@@H]1O` (some centres undefined) was 4000 µM.
In assay [1], `Nc1ncnc2c1ncn2[C@@H]1O[C@H](CO)[C@@H](O)[C@H]1O` [ADENOSINE] registered a Ki of 2500 µM.
In turn, `OC[C@H]1O[C@@H](n2cnc3c(NCc4ccccc4)ncnc32)[C@H](O)[C@@H]1O` [N6-BENZYLADENOSINE] had a Ki in assay [1] of 2800 µM.

For the origin of these results see ChEMBL document CHEMBL1130706, “Synthesis and structure-activity relationships of adenosine analogs as inhibitors of trypanosomal glyceraldehyde-3-phosphate dehydrogenase. Modifications at positions 5' and 8” (Bioorg Med Chem Lett, 1998).
